Patent publication US20250101470A1, “METHOD FOR IMPROVING THE YIELD OF ERINACINE A BY LIQUID FERMENTATION OF HERICIUM ERINACEUS” (Zhejiang University of Technology, priority 2023, published 2025)
“And” between values parts separate entries of the source, which are not always exact repeats. Identical values can stand only once.

Test system: Hericium erinaceus strain ACCC50268
Assay: Liquid fermentation of Hericium erinaceus with an inducer added; mycelium weighed, Erinacine A in methanol extract measured by HPLC
Format: cell-based
Conditions: for effect on Erinacine A yield (in words): 5 mg/L added on 5th day; for increase of Erinacine A content in the mycelium: 5 mg/L inducer versus no inducer (0.19±0.05 mg/g dry mycelium); for increase of Erinacine A yield: 5 mg/L inducer versus no inducer (4.48±0.96 mg/L)
Description: The strain number of a Hericium erinaceus strain is ACCC50268; source: China Agricultural Culture Collection and Management Center.
(S.1) A strain of Hericium erinaceus was subcultured for 3 generations to achieve strain activation. The subculture temperature is 25-28° C., and the optimal culture temperature in this example is 28° C., and the time is 14 days, so that the entire inclined plane can be grown to obtain a slope strain. The components of PDA inclined medium are: potato extract, 15-25 g of glucose, 10-15 g of agar powder, and the volume is set to 1 L with water. In this example, the optimal PDA inclined medium components are as follows: potato extract, 20 g of glucose, 15 g of agar powder, and the volume is determined to 1 L with water;
(S.2) The slope strains obtained in step (S.1) were inoculated into the primary liquid seed medium for culture. One vial of bevel strains was inoculated into two vials of primary liquid seed medium. The components of liquid seed medium are: glucose 25-35 g, soybean meal powder 15-30 g, potassium dihydrogen phosphate 0.5-2 g, magnesium sulfate 0-1 g, and the balance is water. The culture conditions of liquid seed medium are: 1-10 days at 25-28° C. and 130-160 rpm in the dark. In this example, the optimal liquid seed medium components are as follows: glucose 30 g, soybean meal powder 20 g, potassium dihydrogen phosphate 1 g, magnesium sulfate 0.5 g, and the balance is water. The medium was fixed to 1 L with purified water, and the prepared liquid seed medium was loaded into a 500 mL Erlenmeyer flask with a liquid volume of 200 mL, and cultured at 27° C. and 140 rpm for 7 days in the dark, and the liquid seeds of Hericium erinaceus were obtained.
(S.3) the liquid seeds obtained in step (S.2) are inoculated into the liquid fermentation medium for liquid fermentation culture, the ratio of the liquid seed inoculation volume of Hericium erinaceus to the volume of the liquid fermentation medium is 8-12.5% (i.e., the inoculation amount of Hericium erinaceus liquid seeds is 8-12.5%), and the optimal inoculation amount of Hericium erinaceus liquid seeds in this example is 10%. The components of liquid fermentation medium are: glucose 25-50 g, yeast powder 10-30 g, potassium dihydrogen phosphate 0.5-2 g, magnesium sulfate 0-1 g, and the balance is water. The culture conditions of liquid fermentation medium are: 1-10 days at 25-28° C. and 130-160 rpm in the dark. In this example, the optimal liquid fermentation medium components are as follows: 30 g of glucose, 30 g of yeast powder, 1 g of potassium dihydrogen phosphate, 0.5 g of magnesium sulfate, and the balance is water. The medium was fixed to 1 L with distilled water, and the prepared liquid seed medium was packed into a 500 mL Erlenmeyer flask with a liquid volume of 200 mL, and incubated at 27° C. and 140 rpm for 7 days in the dark. […]
seeds of Hericium erinaceus obtained in step (S.2) into liquid fermentation medium for liquid fermentation, […] fermentation medium to a concentration of 5 mg/L. […] After the end of fermentation, the medium was filtered through 80 mesh gauze, washed with water three times, and then dried overnight at 60° C. with hot air to obtain Hericium erinaceus mycelium;
(S.4) The Hericium erinaceus mycelium obtained in step (S.3) was crushed, and 1 g of Hericium erinaceus mycelium dry powder was added to 20 mL of 80% methanol, heated and ultrasonicated. The reaction conditions for ultrasonic extraction of Erinacine A are as follows: ultrasonic power is 200-350 W, heating reaction temperature is 50-70° C., and ultrasonic reaction time is 40-90 min. In this example, the reaction conditions for the optimal ultrasonic extraction of Erinacine A are as follows: ultrasonic extraction at 60° C. and ultrasonic power of 300 W for 60 min. The supernatant was centrifuged to obtain an alcohol extract containing Erinacine A. The alcohol extract was filtered through a 0.22 μm filter membrane and then analyzed in liquid phase. […]

[1] = 1 mg/L, added on 5th day, 6 days induction fermentation
[2] = 5 mg/L, added on 5th day, 1 day induction fermentation
[3] = 5 mg/L, added on 5th day, 2 days induction fermentation
[4] = 5 mg/L, added on 5th day, 4 days induction fermentation
[5] = 20 mg/L, added on 5th day, 6 days induction fermentation
[6] = inducer 5 mg/L in liquid fermentation medium, added on 5th day, 6 days induction fermentation
[7] = inducer 5 mg/L in liquid fermentation medium, added on 5th day, 6 days induction fermentation, listed as Example 2
[8] = 5 mg/L, added on 4th day, 6 days induction fermentation
[9] = 5 mg/L, added on 5th day, 3 days induction fermentation
[10] = 5 mg/L, added on 5th day, 5 days induction fermentation
[11] = 5 mg/L, added on 5th day, 8 days induction fermentation
[12] = 5 mg/L, added on 6th day, 6 days induction fermentation
[13] = 5 mg/L, added on 7th day, 6 days induction fermentation
[14] = 5 mg/L, added on 8th day, 6 days induction fermentation
[15] = 5 mg/L, added on third day, 6 days induction fermentation
[16] = 10 mg/L, added on 5th day, 6 days induction fermentation
[17] = 50 mg/L, added on 5th day, 6 days induction fermentation
[18] = inducer 5 mg/L in liquid fermentation medium, added on 5th day, 6 days induction fermentation, listed as Example 1
[19] = 1 mL of the substance (purity greater than 95%) added on 5th day, 6 days induction fermentation

## methyl viologen
[1]
  Erinacine A content: 0.63 ± 0.09 mg/g dried mycelium
  Erinacine A yield: 13.93 ± 4.56 mg/L
  Mycelium yield: 9.49 ± 2.94 g/L
[2]
  Erinacine A content: 0.07 ± 0.01 mg/g dried mycelium
  Mycelium yield: 20.16 ± 0.85 g/L
[3]
  Erinacine A content: 0.68 ± 0.27 mg/g dried mycelium
  Erinacine A yield: 12.53 ± 3.82 mg/L
  Mycelium yield: 17.94 ± 1.68 g/L
[4]
  Erinacine A content: 5.49 ± 1.60 mg/g dried mycelium
  Erinacine A yield: 103.99 ± 18.67 mg/L
[5]
  Erinacine A content: 1.50 ± 0.38 mg/g dried mycelium
  Erinacine A yield: 29.47 ± 7.44 mg/L
  Mycelium yield: 19.61 ± 0.48 g/L

## C=C(C)[C@H]1Cc2c(ccc3c2O[C@@H]2COc4cc(OC)c(OC)cc4[C@@H]2C3=O)O1 [rotenone]
6 days induction fermentation
  effect on Erinacine A yield (in words): positive effect on the increase of Erinacine A yield
  increase of Erinacine A content in the mycelium: about 2.52 times
  increase of Erinacine A yield: about 2.06 times
[6]
  Erinacine A content: 0.67 mg/g dried mycelium and 0.67±0.04 mg/g dried mycelium
  Erinacine A yield: 13.72 mg/L and 13.72 ± 0.24 mg/L
  Mycelium yield: 8.50 ± 1.69 g/L
[7]
  Erinacine A content: 0.67 ± 0.04 mg/g dried mycelium
  Erinacine A yield: 13.72 ± 0.24 mg/L

## C[n+]1ccc(-c2cc[n+](C)cc2)cc1 [methyl viologen]
6 days induction fermentation
  effect on Erinacine A yield (in words): significantly increased the yield of Erinacine A
  increase of Erinacine A content in the mycelium: about 115.47 times
  increase of Erinacine A yield: about 92.60 times
[8]
  Erinacine A content: 1.52 ± 0.30 mg/g dried mycelium
  Erinacine A yield: 22.18 ± 3.84 mg/L
  Mycelium yield: 2.00 ± 0.84 g/L
[9]
  Erinacine A content: 2.29 ± 0.52 mg/g dried mycelium
  Erinacine A yield: 40.30 ± 7.52 mg/L
  Mycelium yield: 17.68 ± 0.50 g/L
[10]
  Erinacine A content: 16.58 ± 0.43 mg/g dried mycelium
  Erinacine A yield: 276.77 ± 4.72 mg/L
  Mycelium yield: 5.45 ± 1.39 g/L
[11]
  Erinacine A content: 8.97 ± 2.33 mg/g dried mycelium
  Erinacine A yield: 179.50 ± 62.29 mg/L
  Mycelium yield: 19.79 ± 0.76 g/L
[12]
  Erinacine A content: 2.98 ± 1.16 mg/g dried mycelium
  Erinacine A yield: 69.29 ± 30.01 mg/L
  Mycelium yield: 23.05 ± 1.08 g/L
[13]
  Erinacine A content: 2.68 ± 0.66 mg/g dried mycelium
  Erinacine A yield: 61.60 ± 10.06 mg/L
  Mycelium yield: 23.22 ± 1.93 g/L
[14]
  Erinacine A content: 0.57 ± 0.12 mg/g dried mycelium
  Erinacine A yield: 13.29 ± 2.55 mg/L
  Mycelium yield: 23.28 ± 0.57 g/L
[15]
  Erinacine A content: 0.05 ± 0.01 mg/g dried mycelium
  Erinacine A yield: 0.41 ± 0.06 mg/L
  Mycelium yield: 8.64 ± 1.54 g/L
[16]
  Erinacine A content: 20.61 ± 3.21 mg/g dried mycelium
  Erinacine A yield: 400.44 ± 69.30 mg/L
  Mycelium yield: 7.40 ± 0.36 g/L
[17]
  Erinacine A content: 0.21 ± 0.04 mg/g dried mycelium
  Erinacine A yield: 3.71 ± 1.06 mg/L
  Mycelium yield: 17.71 ± 1.29 g/L
[6]
  Erinacine A content: 21.94±2.40 mg/g dried mycelium
  Erinacine A yield: 414.84 ± 30.03 mg/L
  Mycelium yield: 18.96 ± 0.69 g/L
[18]
  Erinacine A content: 94.94 ± 2.40 mg/g dried mycelium
  Erinacine A yield: 414.84 ± 30.03 mg/L and 418.84 ± 30.03 mg/L
Methyl viologen solution added at different times
  effect on liquid fermentation growth of Hericium erinaceus (in words): inhibitory effect on the liquid fermentation growth of Hericium erinaceus

## CCCCCCCC/C=C\CCCCCCCC(=O)O [oleic acid]
1 mL added on the 5th day of liquid fermentation
  effect on synthesis of Erinacine A (in words): did not show obvious stimulating effects
[19]
  Erinacine A content: 0.20 ± 0.10 mg/g dried mycelium
  Erinacine A yield: 4.70 ± 2.16 mg/L
  Mycelium yield: 23.72 ± 1.04 g/L
